These results are taken from US10449157B2, “Process for producing microcapsules comprising an active component encapsulated, protected and stabilised within a protein shell” (Anabio Technologies Limited, priority 2013, dated 2019).

The conditions of data set [1]: product literature; cited from earlier work.
The nature of data set [2]: Electrophoretic mobility (zeta potential). The format is physicochemical.
A short description of data set [3]: Stability trials of free and encapsulated Creatine in water (HPLC).

In the case of `CN(CC(=O)O)C(=N)N.O` [CREAPURE, Creatine Monohydrate], in data set [1], the “long term stability in water” value is given as “no long term stability”.
In data set [2], `CN(CC(=O)O)C(=N)N.O` [commercial Creatine monohydrate, Creatine monohydrate] returned a zeta potential of −2.4 mV. Besides, in data set [3] (15 min incubation in water at room temperature), the “Creatine concentration reduced by” value was 66%. For the same compound, the “first-order degradation rate constant” value in data set [3] (in water at 25° C.) worked out at 0.0263 per day.
